Patent US9359308B2, “Pyrazine kinase inhibitors” (Portola Pharmaceuticals, Inc., priority 2011, dated 2016)

molecular target: T1, full length active recombinant SYK enzyme (Homo sapiens, UniProt P43405); experiment: Inhibition of Syk tyrosine phosphorylation activity (LANCE TR-FRET kinase assay); type: biochemical; settings: activity in the Syk assays, class symbols
T1 construct: full length active recombinant SYK enzyme (Millipore, Calif.); purchased Millipore
Procedure, shortened: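 1 nM full-length active recombinant SYK phosphorylated 550 nM biotin-DEEDYESP-OH with 100 μM ATP in 50 mM Tris pH 7.5, 5 mM MgCl2, 1 mM DTT and 3% DMSO for 1 h at room temperature. After EDTA quench, Eu-anti-phosphotyrosine/SA-APC TR-FRET was read after 1 h. IC50s came from non-linear regression.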

Compound	IC50 [nM]
Cc1ccc(Nc2nc(N[C@@H]3CCCC(F)(F)[C@@H]3N)cnc2C(N)=O)cc1C [Example 169, 5-((1R,2R)-2-amino-3,3-difluorocyclohexylamino)-3-(3,4-dimethylphenylamino)pyrazine-2-carboxamide]	1 to 10
CC[C@@H](Nc1cnc(C(N)=O)c(Nc2ccc(S(=O)(=O)N(C)C)cc2)n1)C(N)=O [Example 170, (R)-5-(1-amino-1-oxobutan-2-ylamino)-3-(4-(N,N-dimethylsulfamoyl)phenylamino)pyrazine-2-carboxamide]	10 to 100
COc1ccc(Nc2nc(N[C@H](CC3CC3)C(N)=O)cnc2C(N)=O)cc1OC [Example 171, (R)-5-(1-amino-3-cyclopropyl-1-oxopropan-2-ylamino)-3-(3,4-dimethoxyphenylamino)pyrazine-2-carboxamide]	1 to 10
Cc1ccc(Nc2nc(N[C@H](CC3CC3)C(N)=O)cnc2C(N)=O)cc1C [Example 172, (R)-5-(1-amino-3-cyclopropyl-1-oxopropan-2-ylamino)-3-(3,4-dimethylphenylamino)pyrazine-2-carboxamide]	1 to 10
CC[C@@H](Nc1cnc(C(N)=O)c(Nc2cnn(-c3ccccc3)c2)n1)C(N)=O [Example 173, (R)-5-(1-amino-1-oxobutan-2-ylamino)-3-(1-phenyl-1H-pyrazol-4-ylamino)pyrazine-2-carboxamide]	10 to 100
Cc1ccc(Nc2nc(N[C@H](CC3CC3)C(N)=O)cnc2C(N)=O)cc1 [Example 174, (R)-5-(1-amino-3-cyclopropyl-1-oxopropan-2-ylamino)-3-(p-tolylamino)pyrazine-2-carboxamide]	10 to 100
NC(=O)c1ncc(NC2(C(N)=O)CC2)nc1Nc1cnc2ccc(F)cc2c1 [Example 175, 5-(1-carbamoylcyclopropylamino)-3-(6-fluoroquinolin-3-ylamino)pyrazine-2-carboxamide]	1 to 10
NC(=O)c1ncc(NC[C@@H](N)CC(F)F)nc1Nc1cccc(-c2ncccn2)c1 [Example 176, (S)-5-(2-amino-4,4-difluorobutylamino)-3-(3-(pyrimidin-2-yl)phenylamino)pyrazine-2-carboxamide]	10 to 100
CC[C@@H](Nc1cnc(C(N)=O)c(Nc2cncc(C)c2)n1)C(N)=O [Example 177, (R)-5-(1-amino-1-oxobutan-2-ylamino)-3-(5-methylpyridin-3-ylamino)pyrazine-2-carboxamide]	10 to 100
CC[C@@H](Nc1cnc(C(N)=O)c(Nc2ccnc(C)c2)n1)C(N)=O [Example 178, (R)-5-(1-amino-1-oxobutan-2-ylamino)-3-(2-methylpyridin-4-ylamino)pyrazine-2-carboxamide]	10 to 100
CC[C@@H](Nc1cnc(C(N)=O)c(Nc2cc(C)nc(C)c2)n1)C(N)=O [Example 179, (R)-5-(1-amino-1-oxobutan-2-ylamino)-3-(2,6-dimethylpyridin-4-ylamino)pyrazine-2-carboxamide]	10 to 100
CC(C)C[C@@H](Nc1cnc(C(N)=O)c(Nc2ccn(C)n2)n1)C(N)=O [Example 180, (R)-5-(1-amino-4-methyl-1-oxopentan-2-ylamino)-3-(1-methyl-1H-pyrazol-3-ylamino)pyrazine-2-carboxamide]	> 1000
CC[C@@H](Nc1cnc(C(N)=O)c(Nc2cccnc2)n1)C(N)=O [Example 181, (R)-5-(1-amino-1-oxobutan-2-ylamino)-3-(pyridin-3-ylamino)pyrazine-2-carboxamide]	10 to 100
CC[C@@H](Nc1cnc(C(N)=O)c(Nc2cncc(F)c2)n1)C(N)=O [Example 182, (R)-5-(1-amino-1-oxobutan-2-ylamino)-3-(5-fluoropyridin-3-ylamino)pyrazine-2-carboxamide]	10 to 100
Cc1cccc(Nc2nc(N[C@H]3CC[C@@H](N)CC3)cnc2C(N)=O)c1 [Example 183, 5-((1s,4s)-4-aminocyclohexylamino)-3-(m-tolylamino)pyrazine-2-carboxamide]	10 to 100
NC(=O)c1ncc(N[C@H]2CC[C@@H](N)CC2)nc1Nc1cccc(-c2ncccn2)c1 [Example 184, 5-((1s,4s)-4-aminocyclohexylamino)-3-(3-(pyrimidin-2-yl)phenylamino)pyrazine-2-carboxamide]	1 to 10
NC(=O)c1ncc(N[C@H]2CC[C@@H](N)CC2)nc1Nc1cnc2ccccc2c1 [Example 185, 5-((1s,4s)-4-aminocyclohexylamino)-3-(quinolin-3-ylamino)pyrazine-2-carboxamide]	10 to 100
Cn1cc(Nc2nc(N[C@@H]3CCCC[C@@H]3N)cnc2C(N)=O)cn1 [Example 186, 5-((1R,2S)-2-aminocyclohexylamino)-3-(1-methyl-1H-pyrazol-4-ylamino)pyrazine-2-carboxamide]	10 to 100
NC(=O)c1ncc(N[C@H]2CC[C@@H](N)CC2)nc1Nc1ccc2ncccc2c1 [Example 187, 5-((1s,4s)-4-aminocyclohexylamino)-3-(quinolin-6-ylamino)pyrazine-2-carboxamide]	1 to 10

Compound	IC50 [nM]
NC(=O)c1ncc(NC2CCC(N)CC2)nc1Nc1cccc(-n2nccn2)c1 (stereo not shown) [Example 188, 3-(3-(2H-1,2,3-triazol-2-yl)phenylamino)-5-((1r,4r)-4-aminocyclohexylamino)pyrazine-2-carboxamide]	1 to 10
CC(C)[C@@H](Nc1cnc(C(N)=O)c(Nc2ccc3cnccc3c2)n1)C(N)=O [Example 189, (R)-5-(1-amino-3-methyl-1-oxobutan-2-ylamino)-3-(isoquinolin-6-ylamino)pyrazine-2-carboxamide]	1 to 10
NC(=O)c1ncc(N[C@@H](C(N)=O)C2CC2)nc1Nc1ccc2cnccc2c1 [Example 190, (R)-5-(2-amino-1-cyclopropyl-2-oxoethylamino)-3-(isoquinolin-6-ylamino)pyrazine-2-carboxamide]	1 to 10
CC(C)(C)[C@@H](Nc1cnc(C(N)=O)c(Nc2cnc3ccccc3c2)n1)C(N)=O [Example 191, (R)-5-(1-amino-3,3-dimethyl-1-oxobutan-2-ylamino)-3-(quinolin-3-ylamino)pyrazine-2-carboxamide]	1 to 10
CC(C)(C)[C@@H](Nc1cnc(C(N)=O)c(Nc2ccc3ncccc3c2)n1)C(N)=O [Example 192, (R)-5-(1-amino-3,3-dimethyl-1-oxobutan-2-ylamino)-3-(quinolin-6-ylamino)pyrazine-2-carboxamide]	1 to 10
CC(C)[C@@H](Nc1cnc(C(N)=O)c(Nc2cnc3cccnc3c2)n1)C(N)=O [Example 193, (R)-3-(1,5-naphthyridin-3-ylamino)-5-(1-amino-3-methyl-1-oxobutan-2-ylamino)pyrazine-2-carboxamide]	10 to 100
CC(C)[C@@H](Nc1cnc(C(N)=O)c(Nc2cnc3ccncc3c2)n1)C(N)=O [Example 194, (R)-3-(1,6-naphthyridin-3-ylamino)-5-(1-amino-3-methyl-1-oxobutan-2-ylamino)pyrazine-2-carboxamide]	1 to 10
CC(C)[C@@H](Nc1cnc(C(N)=O)c(Nc2ccc3ccncc3c2)n1)C(N)=O [Example 195, (R)-5-(1-amino-3-methyl-1-oxobutan-2-ylamino)-3-(isoquinolin-7-ylamino)pyrazine-2-carboxamide]	1 to 10
CC(C)C[C@@H](Nc1cnc(C(N)=O)c(Nc2cncc(C(F)(F)F)c2)n1)C(N)=O [Example 196, (R)-5-(1-amino-4-methyl-1-oxopentan-2-ylamino)-3-(5-(trifluoromethyl)pyridin-3-ylamino)pyrazine-2-carboxamide]	10 to 100
NC(=O)c1ncc(N[C@@H]2CCCC[C@@H]2N)nc1Nc1cncc(C(F)(F)F)c1 [Example 197, 5-((1R,2S)-2-aminocyclohexylamino)-3-(5-(trifluoromethyl)pyridin-3-ylamino)pyrazine-2-carboxamide]	1 to 10
NC(=O)c1ncc(N[C@@H]2CCCC[C@@H]2N)nc1Nc1cnc2ccc(F)cc2c1 [Example 198, 5-((1R,2S)-2-aminocyclohexylamino)-3-(6-fluoroquinolin-3-ylamino)pyrazine-2-carboxamide]	1 to 10
NC(=O)c1ncc(N[C@@H]2CCCC[C@@H]2N)nc1Nc1cccc(C(F)(F)F)c1 [Example 199, 5-((1R,2S)-2-aminocyclohexylamino)-3-(3-(trifluoromethyl)phenylamino)pyrazine-2-carboxamide]	1 to 10
CC(C)[C@@H](Nc1cnc(C(N)=O)c(Nc2cnc3ccc(F)cc3c2)n1)C(N)=O [Example 200, (R)-5-(1-amino-3-methyl-1-oxobutan-2-ylamino)-3-(6-fluoroquinolin-3-ylamino)pyrazine-2-carboxamide]	1 to 10
NC(=O)c1ncc(N[C@@H]2CCCC[C@@H]2N)nc1Nc1cnc2cc(F)ccc2c1 [Example 201, 5-((1R,2S)-2-aminocyclohexylamino)-3-(7-fluoroquinolin-3-ylamino)pyrazine-2-carboxamide]	1 to 10
NC(=O)c1ncc(N[C@@H]2CCCC[C@@H]2N)nc1Nc1cnc2c(F)cccc2c1 [Example 202, 5-((1R,2S)-2-aminocyclohexylamino)-3-(8-fluoroquinolin-3-ylamino)pyrazine-2-carboxamide]	1 to 10
CC(C)[C@@H](Nc1cnc(C(N)=O)c(Nc2cnc3cc(F)ccc3c2)n1)C(N)=O [Example 203, (R)-5-(1-amino-3-methyl-1-oxobutan-2-ylamino)-3-(7-fluoroquinolin-3-ylamino)pyrazine-2-carboxamide]	1 to 10
CC(C)[C@@H](Nc1cnc(C(N)=O)c(Nc2cnc3c(F)cccc3c2)n1)C(N)=O [Example 204, (R)-5-(1-amino-3-methyl-1-oxobutan-2-ylamino)-3-(8-fluoroquinolin-3-ylamino)pyrazine-2-carboxamide]	1 to 10
NC(=O)c1ncc(N[C@@H]2CCCC[C@@H]2N)nc1Nc1cc(F)c2ncccc2c1 [Example 205, 5-((1R,2S)-2-aminocyclohexylamino)-3-(8-fluoroquinolin-6-ylamino)pyrazine-2-carboxamide]	< 1
